Counter-ions that a name gives are not always drawn.
How the values were obtained:
[1] = physchem; format: physicochemical; conditions: water
[2] = hygroscopicity: water uptake and water content versus relative humidity (VTI, Karl Fisher); format: physicochemical
Description: The crystalline diphosphate salt gradually absorbs water to about 13% at 87% relative humidity with a rapid uptake of water to about 48% occurring at about 90% relative humidity. Thermogravametric analysis on the diphosphate salt discloses that three waters are lost by about 75° C., a fourth water is lost by about 120° C., the fifth water is lost by about 170° C., and the final three waters are lost by about 200° C. The maximum number of water molecules necessary for the stabilization of the crystalline lattice appears to be about eight. Drying the diphosphate salt in about 70° C. in air or about 45° C. in a vacuum removed the water leaving a pseudomorph.
Drying in the VTI at 20-25° C. indicated a weight loss of 10%; the dried salt gradually adsorbed water to 15% at 85% RH (relative humidity), followed by a rapid uptake to 48% at 90% RH. At 90% RH, the compound deliquesced.
The mobility of the water within the crystalline lattice is directly related to the relative humidity of the environment the diphosphate salt comes in contact with. For example, at about 87% relative humidity, the compound contains about 13% water; at 60% relative humidity the compound contains about 8% water; and at 40% relative humidity the diphosphate salt contains about 5% water (all calculations by KF).
Both the liquid crystal and the crystalline form of the diphosphate were hygroscopic. When attempts were conducted in hydrophilic solvents, the addition of 4% to 5% (v/v) water to the amorphous slurry caused the compound to crystallize as an octahydate.

Structure (SMILES)	solubility [1]	water adsorbed (gradual) by dried salt ([2]; after drying in the VTI at 20-25° C., at 85% RH)	rapid uptake of water by dried salt ([2]; after drying in the VTI at 20-25° C., at 90% RH)	water content (by KF) ([2]; at 40% relative humidity)	water content (by KF) ([2]; at 60% relative humidity)	water absorbed (gradual) ([2]; at 87% relative humidity)	behaviour at high humidity ([2]; at 90% RH)	water content (by KF) ([2]; at about 87% relative humidity)	rapid uptake of water ([2]; at about 90% relative humidity)	hygroscopicity [2]
CCCNC[C@]1(O)C(C)OC(OC2C(C)C(=O)OC(CC)[C@@](C)(O)[C@H](O)[C@@H](C)NC[C@H](C)C[C@](C)(O)[C@H](OC3OC(C)CC(N(C)C)[C@H]3O)C2C)C[C@@]1(C)OC (stereo partly drawn) [crystalline diphosphate salt, (2R,3S,4R,5R,8R,10R,11R,12S,13S,14R)-13-[[2,6-dideoxy-3-C-methyl-3-O-methyl-4-C-[(propylamino)methyl]-α-L-ribo-hexopryanosyl]oxy]-2-ethyl-3,4,10-trihydroxy-3,5,8,10,12,14-hexamethyl-11-[[3,4,6-trideoxy-3-(dimethylamino)-β-D-xylo-hexopyranosyl]oxy]-1-oxa-6-azacyclopentadecan-15-one diphosphate]	~280 mg/mL	15%	48%	about 5%	about 8%	about 13%	deliquesced	about 13%	about 48%	–
CCCNC[C@]1(O)C(C)OC(OC2C(C)C(=O)OC(CC)[C@@](C)(O)[C@H](O)[C@@H](C)NC[C@H](C)C[C@](C)(O)[C@H](OC3OC(C)CC(N(C)C)[C@H]3O)C2C)C[C@@]1(C)OC (stereo partly drawn) [liquid crystal, (2R,3S,4R,5R,8R,10R,11R,12S,13S,14R)-13-[[2,6-dideoxy-3-C-methyl-3-O-methyl-4-C-[(propylamino)methyl]-α-L-ribo-hexopryanosyl]oxy]-2-ethyl-3,4,10-trihydroxy-3,5,8,10,12,14-hexamethyl-11-[[3,4,6-trideoxy-3-(dimethylamino)-β-D-xylo-hexopyranosyl]oxy]-1-oxa-6-azacyclopentadecan-15-one diphosphate]	–	–	–	–	–	–	–	–	–	hygroscopic

Source: US7297682B2, “Diphosphate salt of a 4″—substituted-9-deoxo-9 A—AZA—homoerythromycin derivatives and its pharmaceutical composition” (Pfizer Inc., priority 1999, dated 2007)
